The values below are quoted from earlier work in patent US7875639B2, “Compounds as cannabinoid receptor ligands and uses thereof” (priority 2006, dated 2011).

One data set deals with microglia. The conditions noted are these: in vitro.
Another data set deals with animal models. The note with it: animal models of acute thermal pain, persistent pain, inflammatory pain and neuropathic pain.
The conditions of data set [1]: at fully efficacious doses.
Another data set relates to rodent models. The note with it: rodent models of neuropathic, incisional, and both chronic and acute inflammatory pain.
In data set [2] the test system is CB1I receptor knockout mice. The conditions noted are these: CB1 receptor knockout mice.
Data set [3] concerns apolipoprotein F knockout mice. The conditions noted are these: low doses.
For the next data set, the system named is rat. The note with it: rat formalin model of persistent pain.
In a further data set the test system is mice. The note with it: model for post-menopausal osteoporosis.

With `CCCC(C)(C)c1ccc2c(c1)OC(C)(C)[C@@H]1CC=C(C)C[C@@H]21` [JWH-133], the “β-amyloid-induced microglial activation and neurotoxicity” value in the data set with microglia is “abrogated β-amyloid-induced microglial activation and neurotoxicity”.
On to `CN1CCCCC1Cn1cc(C(=O)c2cc([N+](=O)[O-])ccc2I)c2ccccc21` (stereo not shown) [AM-1241], for which the analgesic efficacy result with animal models was “exhibits robust analgesic efficacy”. For the same molecule, in [1], the “typical CB1 receptor-mediated CNS side effects” value is given as “devoid of typical CB1 receptor-medicated CNS side effects”.
Consider `COc1ccc2c(c1)c(CCN1CCOCC1)c(C)n2C(=O)c1cccc(Cl)c1Cl` [GW405833], for which the “efficacy in pain models” value in the data set with rodent models is “is efficacious”. Besides, the “typical CB1 receptor-mediated CNS side effects” value in data set [1] is on record as “devoid of typical CB1 receptor-medicated CNS side effects”.
For the molecule (−)-Δ^9-Tetrahydrocannabinol [Δ^9-THC], the analgesic efficacy entry in data set [2] was “retains some analgesic efficacy”. In addition, in data set [3], the “progression of atherosclerotic lesions” value is reported as “slowed the progression of atherosclerotic lesions”.
`CCCCCCC(C)(C)c1cc(OC)c([C@@H]2C=C(CO)[C@@H]3C[C@H]2C3(C)C)c(OC)c1` [HU-308]: the antinociceptive response result in the data set on rat is listed as “elicits an antinociceptive response”.
With SR144528, the ovariectomy-induced bone loss result in the data set with mice is given as “reverse ovariectomy-induced bone loss”. The osteoclast activity result with osteoclast was “inhibit osteoclast activity”.
